Results taken from patent publication US20090247495A1, “CU[…] AND USES THEREOF” (priority 2007, published 2009).

Experiments:
[1] = test system: HL60 cells and U937 cells; assay: Cytocentrifuged, fixed and stained cells (multinucleation); format: cell-based, human; conditions: 1×10^−8 M or 5×10^−8 M, 96 hours
Procedure: HL60 cells, as depicted in FIGS. 13A to 13C, and U937 cells, as depicted in FIGS. 13D to 13F, were cytocentrifuged, fixed and stained. Cells were treated with either 1×10^−8 M (FIGS. 13B, 13C and 13E) or 5×10^−8 M (FIG. 13F) cucurbitacin B for 96 hours, and compared with diluent treated control cells (FIGS. 13A and […]).

[2] = test system: Human leukemia cell lines CCRF-CEM, K562, MOLT-4, RPMI-8226 and SR; assay: Cell proliferation assay using SRB, 5 human leukemia cell lines; format: cell-based; conditions: 48 hours treatment, range over all leukemia cell lines
Procedure: (§1) Human leukemia cell lines CCRF-CEM, K562, MOLT-4, RPMI-8226 and SR, purchased from the National Cancer Institute (NCI), were cultured in RPMI 1640 medium supplemented with 5%(v/v) fetal Bovine […] and 100 units/ml penicillin and 100 units/ml streptomycin in a humidified 5% CO2 atmosphere at 37° C. • 6.1.2 Reagents and Antibodies
(§2) All 5 human leukemia cells were screened by the cell proliferation assay using SRB to quantitative cell protein mass following cucurbitacin B treatment. The experiments were repeated in triplicate. Appropriate number of cells (depends on the doubling time of cells) were seeded into a 96-well tissue culture plate and growth in the indicated medium in presence of different dosages of cucurbitacin B for 2 days. Afterwards 25 μl 80%TCA reagent was added into each well to fix the cells and the plates were incubated at 4° C. at least for 1 hour. Then the plates were washed with tap water and air dried. […] The plates were air dried and dissolved by 100 μl 1 OmMTrizma-base solution and the absorbance was measured at 515 nm using FLUOstar OPTIMA equipment. • 6.1.4 Flow Cytometry for Apoptosis Analysis
(§3) Appropriate number of cell density were seeded into a 96 well culture plate and treated with different doses of cucurbitacin B for 2 days. The growth inhibition effects of cucurbitacin B on the cells were detected using SRB.

MAPK signaling pathway = assay: Western blot of MAPK / cell cycle signaling proteins in HL60 cells; format: cell-based, human
Procedure: Control cells, as well as cells treated with cucurbitacin B or cucurbitacin D, were harvested and collected by centrifugation. Whole cell extracts were then prepared by lysing the cells using 4% sodium dodecyl sulfate (SDS) gel sample buffer. Cell extracts were boiled for 10 min and chilled on ice, subjected to 12% SDS-polyacrylamide gel electrophoresis, and transferred to a PVDF membrane. Each membrane was cut into to two pieces with one piece incubated at 4° C. overnight with antibodies against cell cycle signaling proteins, such as ERK, phosphorlated-ERK, p38, phosphorlated-p38, Cyclin E, Retinoblastoma, phosphalated-Retinoblastoma and c-myc, and apoptotic protein (PARP). β-actin was used as a control for protein loading. All antibodies were obtained from Cell signaling Technologies (USA). Then membranes were incubated at 37° C. for 1 h with secondary antibody conjugated with peroxidase, and the signal was detected using chemiluminescence detection reagent. The relative protein level was calculated as the ratio of the optical density of the protein of interest to that of β-actin.

Panc 02.13 = assay: MTT cell cytotoxicity assay, Panc 02.13; format: cell-based; conditions: Homo sapiens, 48 hours
Procedure: (§4) Three human pancreatic cancer cell lines (Panc-1, Panc 02.13, Panc 10.05) were purchased from American Type Culture Collection (ATCC, Manassas, Va., USA). Panc 02.13 and Panc 10.05 were grown in RPMI 1640 medium supplemented with 15% FBS, 4.5 g/L glucose, 10 mM HEPES, and 1.0 mM sodium pyruvate and 10 Units/ml human insulin; while PANC-1 was grown in Dulbecco's modified Eagle's medium supplemented with 10% FBS. They were maintained in a humidified 5% CO2 atmosphere at 37° C. and the culture medium was changed once in 2 days.
(§5) The cytotoxic effect of CuB on these three cancer cell lines were determined using MTT (3-[4,5-dimethylthiazol-2-yl]-2,5-diphenyl tetrazolium bromide) labeled cell cytotoxicity assay. A total of 1×10^4 cells were seeded into a 96-well plate for 24 hours prior to cucurbitacin B (CuB) treatment. They were then treated with different dosages of CuB for 48 hours. After the treatment, 20 μl of MTT (5 mg/ml) was added to each well and incubated for 4 hrs. Then the medium was discarded and 100 μl of dimethyl sulfoxide was added. The absorbance at 570 nm was then measured by FLUOstar OPTIMA equipment (BMG, LABTECH GmbH, Germany). The percentage of inhibition against different dosages of CuB were plotted using the Prism software and the 50% inhibition concentration (IC50) were obtained. […]

K562 = assay: Cell proliferation assay using SRB, K562; format: cell-based; conditions: Homo sapiens, 48 hours treatment
Procedure: as §1, §2, §3

Erk1/2 = assay: Western blot of Erk1/2 in HepG2, HT29 and MCF-7 cells; format: cell-based, human
Procedure: The human cancer cells line were serum starved for 18 hours prior to CuB/CuD treatment. Cells were incubated in a 6-well plate filled with 5 ml growth medium (RPMI with 0.2% FBS and 1% PS) at the cell density of 1×10^5 cells/ml, in the presence or absence of two different dosages of CuB/CuD for various time intervals. The drug treatment was terminated by centrifugation at 1,500 rpm for 5 minutes and the cells were rinsed twice with phosphate-buffered saline and lysed at 4° C. in a lysis buffer containing 50 mM Tris-HCl, pH7.5, 100 mM NaCl, 5 mM EDTA, 40 mM NaP2O7, 1% Triton X-100, 1 mM dithiothreitol, 200 μM Na3VO4, 100 uM phenylmethysufonyl fluoride, 2 μg/ml leupeptin, 4 μg/ml aprotinin and 0.7 μg/ml pepstatin. The insoluble protein lysate were removed by centrifugation for 10 minutes at 13,000 rpm. Fifteen micrograms of protein lysate was resolved using 10% SDS-polyacryamide gel electrophoresis (PAGE) and then subjected to western blot anaylsis. Western blots were performed with anti-Stat3, anti-Erk1/2 and anti-hsp27 antibodies specific for phosphor- and total Stat3, Erk and hsp27 proteins. The protein bands were then visualized with the Enhanced Chemiluminescence Plus (ECL Plus) detection system (Amersham). • 6.2.8.1 Inhibition Effect Cucurbitacin B/Cucurbitacin D on Stat3 Activation in HepG2 and HT29 Cells
Cells were incubated either with CuB or CuD (25 ug/ml or the dosage of IC50) for various time intervals (5, 10 or 30 mins, 1 or 4 hours). The Stat3 activation was detected by western blot.

Panc-1 = assay: MTT cell cytotoxicity assay, Panc-1; format: cell-based; conditions: Homo sapiens
Procedure: as §4, §5

## CC(=O)OC(C)(C)/C=C/C(=O)[C@](C)(O)C1[C@H](O)C[C@@]2(C)C3CC=C4C(C[C@H](O)C(=O)C4(C)C)[C@]3(C)C(=O)C[C@]12C (stereo partly shown) [cucurbitacin B]
[1]
  cell morphology (multinucleation): enlarged, multinucleated cells
[2]
  GI50: 15.6 to 35.3 nM
MAPK signaling pathway
  regulation of ERK, cyclin E, retinoblastoma phosphorylation and c-myc: ERK activation, followed by cyclin E down-regulation, inhibition of retinoblastoma's phosphorylation, and ultimately down-regulation of c-myc
Panc 02.13
  GI50: 5130 nM
K562
  GI50: 15.6 nM
Erk1/2; HT29, 5 minutes of treatment
  expression of Erk1/2: up-regulated the expression of Erk1/2 significantly
Erk1/2; HepG2, 30 minutes of treatment
  expression of Erk1/2: up-regulated the expression of Erk1/2 significantly
Erk1/2; MCF-7 cells, 5 minutes
  Erk activation: significant Erk activation
Panc-1; MTT, 48 hours
  GI50: 12400 nM
Panc-1; read-out: IC50 (dose used for western blot)
  IC50: 800 nM
